The data set concerns five species mix of representative oral bacterial species. Kind of data set: resazurin cell viability assay (bacterial metabolism/viability). How it is done: A five species mix of representative oral bacterial species was used to simulate the complex bacterial flora of the oral environment. A bacterial mix comprising Actinomyces viscosus, Lactobacillus casei, Streptococcus oralis, Fusobacteriaum nucleatum and Veillonella parvulal was incubated with the compound under investigation for 1 hour at 37° C., neutralized, washed and stained with 50 μg/ml resazurin solution. When viable bacteria are incubated with resazurin, the blue non-fluorescent dye is reduced by the bacteria to pink fluorescent resorufin. Fluorescence of the test sample is read at 560 nm excitation/590 nm emission and compared to the fluorescence of a standardized mixture of live and dead bacteria to determine the percentage of the initial population that is viable after incubation.
In order to minimize the effects of formula excipients, dilute 1:100 and 1:10 dentifrice slurries of formulations in water were used in the assay. As before, the test compound (as a dilute slurry) was incubated with the bacteria for 1 hour at 37° C., neutralized, washed and stained with 50 μg/ml resazurin solution. The percentage of viable bacteria was then determined.

The record followed here is patent publication US10736831B2, “Oral care compositions” (Colgate-Palmolive Company, priority 2015, dated 2020).

“sodium lauryl ether sulfate [0.5 wt. % SLES]”: the “% bacteria viable following treatment” value (aqueous test solutions, incubated 1 hour at 37° C., resazurin 50 μg/ml, fluorescence 560/590 nm) is recorded as 19.94%.
Turning to zinc coceth sulfate [0.5 wt. % ZCS], the “antibacterial efficacy compared with comparators (in words)” value (solutions of Example 1, Table 1) is listed as “significantly more efficacious than surfactant alone or an aqueous solution of 0.8 wt. % total elemental zinc”.
